Each structure is given as a SMILES string. Where two headings read alike, the source gives them in different places.

Results on seven compounds are retold here after PMC3340383, “Synthesis and Evaluation of a Series of 2-Substituted-5-Thiopropylpiperazine (Piperidine)-1,3,4-Oxadiazoles Derivatives as Atypical Antipsychotics” (PLoS ONE, 2012).

Data set [1] deals with MK-801-induced hyperactivity in mice. Nature of the data set: MK-801-induced hyperactivity. Conditions: Mus musculus, po, read-out: MK-801-induced hyperactivity ED50 (B).
For data set [2], the system named is apomorphine-induced climbing behavior in mice. Nature of the data set: Apomorphine-induced climbing. The class given is in vivo. The conditions noted are these: Mus musculus, po, read-out: Apomorphine-induced climbing ED50 (A). The procedure:
. […] . Animals were then challenged at 30 minutes post-injection with 1.0 mg/kg of the apomorphine in 0.9% NaCl+0.1% ascorbic acid, placed in cylindrical wire cages (12 cm in diameter, 14 cm in height), and observed for climbing behavior at 10, 20 and 30 min post dose. The climbing behaviour was scored as follows: 3–4 paws on the cage floor = 0 score; 2 and 3 paws on the cage = 1 score; 4 paws on the cage = 2 score.

The next data set in a line: in vivo. The conditions noted are these: Kun Ming (KM), mouse, po.
The target in a further data set is T1, histamine H1 receptor (Cavia porcellus, UniProt P31389).
T1 construct: Guinea pig cerebellum was homogenized in 20 volumes of ice-cold 50 mM phosphate buffer; from tissue; host or cells: guinea pig cerebellum
Nature of the data set: Histamine H1 binding assay ([3H]pyrilamine, guinea pig cerebellum). Conditions: read-out: Ki±SEM, H1. The protocol: (§1) All the new compounds were dissolved in 5% DMSO. The following specific radioligands and tissue sources were used: (a) serotonin 5-HT1A receptor, [^3H]8-OH-DPAT, rat brain cortex; (b) serotonin 5-HT2A receptor, [^3H]ketanserin, rat brain cortex; (c) serotonin 5-HT2C receptor, [^3H]mesulergine, rat brain cortex; (d) dopamine D2 receptor, [^3H]spiperone, rat striatum; (e) dopamine D3 receptor, [^3H]spiperone, rat olfactory tubercle (f) histamine H1 receptor, [^3H] pyrilamine, guinea pig cerebellum.
(§2) Total binding was determined in the absence of no-specific binding and compounds. Specific binding was determined in the presence of compounds. Non-specific binding was determined as the difference between total and specific binding.
(§3) Percentage of inhibition (%) = (total binding − specific binding)×100%/(total binding − nonspecific binding).
(§4) Ki values were calculated based on the Cheng and Prussoff equation: Ki = IC50/(1+C/Kd) where C represents the concentration of the hot ligand used and Kd its receptor dissociation constant were calculated for each labeled ligand. Mean Ki values and SEM were reported for at least three independent experiments.
(§5) The incubation was followed by a rapid vacuum filtration through Whatman GF/B glass filters, and the filtrates were washed twice with 5 mL cold buffer and transferred to scintillation vials. Scintillation fluid (3.0 mL) was added and the radioactivity bound was measured using a Beckman LS 6500 liquid scintillation counter.

Data set [3] concerns the target T2, serotonin 5-HT1A receptor (Rattus norvegicus, UniProt P19327).
T2 construct: Rat cerebral cortex was homogenized in 20 volumes of ice-cold Tris-HCl buffer; from tissue; host or cells: rat brain (cerebral) cortex
T2 sequence (P19327 1-422): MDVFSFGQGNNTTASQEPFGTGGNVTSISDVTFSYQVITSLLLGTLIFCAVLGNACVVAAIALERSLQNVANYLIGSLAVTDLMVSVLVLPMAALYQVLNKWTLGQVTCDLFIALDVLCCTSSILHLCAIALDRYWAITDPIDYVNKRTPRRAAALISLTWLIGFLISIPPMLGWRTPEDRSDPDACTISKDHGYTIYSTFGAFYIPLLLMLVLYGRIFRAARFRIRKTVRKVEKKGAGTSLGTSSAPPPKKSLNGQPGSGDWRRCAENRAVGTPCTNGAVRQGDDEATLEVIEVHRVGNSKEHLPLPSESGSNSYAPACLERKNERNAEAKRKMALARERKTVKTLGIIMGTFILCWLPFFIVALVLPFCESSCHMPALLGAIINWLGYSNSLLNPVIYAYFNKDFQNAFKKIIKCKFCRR
Nature of the data set: 5-HT1A binding assay ([3H]8-OH-DPAT, rat brain cortex). Conditions: read-out: Ki±SEM, 5HT1A. The protocol:
as §1, §2, §3, §4
Rat cerebral cortex was homogenized in 20 volumes of ice-cold Tris-HCl buffer (50 mM, pH 7.7) using an ULTRA TURAX homogeniser, and was then centrifuged at 32000 g for 10 min. […] The final pellet was resuspended in Tris-HCl buffer containing 10 µM Pargyline, 4 mM CaCl2 and 0.1% ascorbic acid.
Total binding each assay tube was added 900 µL of the tissue suspension, 50 µL of 0.5 nM [^3H]8-OH-DPAT (187.4 Ci/mmol, Perkin Elmer Life Sciences, Boston, MA, USA), 50 µL Tris-HCl buffer containing 10 µM Pargyline, 4 mM CaCl2 and 0.1% ascorbic acid.
Non-specific binding each assay tube was added 900 µL of the tissue suspension, 50 µL of 0.5 nM [^3H]8-OH-DPAT, 50 µL of 10 µM serotonin.
Specific binding each assay tube was added 900 µL of the tissue suspension, 50 µL of 0.5 nM [^3H]8-OH-DPAT, 50 µL of new compounds or reference drug.
The incubation was followed by a rapid vacuum filtration through Whatman GF/B glass filters, and the filtrates were washed twice with 5mL cold buffer and transferred to scintillation vials. Scintillation fluid (3.0 mL) was added and the radioactivity bound was measured using a Beckman LS 6500 liquid scintillation counter.

The target of another data set is T3, dopamine D3 receptor (Rattus norvegicus, UniProt P19020).
T3 construct: Rat olfactory tubercle was homogenized in 20 volumes of ice-cold 50 mM Hepes Na; from tissue; host or cells: rat olfactory tubercle
The data set can be described thus: D3 dopaminergic binding assay ([3H]spiperone, rat olfactory tubercle). The conditions noted are these: mean of three experiments, read-out: Ki±SEM, D3. The protocol:
as §1, §2, §3, §4, §5

Another data set concerns the target T4, dopamine D2 receptor (Rattus norvegicus, UniProt P61169).
T4 construct: Rat striatum was homogenized in 20 volumes of ice-cold 50 mM Tris-HCl buffer; from tissue; host or cells: rat striatum
Nature of the data set: D2 dopaminergic binding assay ([3H]spiperone, rat striatum). Conditions: read-out: Ki±SEM, D2. The procedure:
as §1, §2, §3, §4
Rat striatum was homogenized in 20 volumes of ice-cold 50 mM Tris-HCl buffer (pH 7.7) using an ULTRA TURAX homogeniser, and centrifuged twice for 10 min at 48,000 g with resuspension of the pellet in fresh buffer. The final pellet was resuspended in 50 mM ice-cold Tris-HCl containing 120 mM NaCl, 5 mM KCl, 2 mM CaCl2, 1 mM MgCl2, 0.1% ascorbic acid and 5 µM pargyline.
Total binding each assay tube was added 900 µL of the tissue suspension, 50 µL of 0.5 nM [^3H]spiperone (16.2 Ci/mmol; Perkin Elmer Life Sciences, Boston, MA, USA), 50 µL Tris-HCl buffer containing 120 mM NaCl, 5 mM KCl, 2 mM CaCl2, 1 mM MgCl2, 0.1% ascorbic acid and 5 µM pargyline.
Non-specific binding each assay tube was added 900 µL of the tissue suspension, 50 µL of 0.5 nM [^3H]spiperone, 50 µL of 10 µM (+)-butaclamol.
Specific binding each assay tube was added 900 µL of the tissue suspension, 50 µL of 0.5 nM [^3H]spiperone, 50 µL of new compounds or reference drug.
as §5

Data set [4] deals with T5, serotonin 5-HT2A receptor (Rattus norvegicus, UniProt P14842).
T5 construct: Rat cerebral cortex was homogenized in 20 volumes of ice-cold Tris-HCl buffer; from tissue; host or cells: rat brain (cerebral) cortex
Nature of the data set: 5-HT2A binding assay ([3H]ketanserin, rat brain cortex). The conditions noted are these: read-out: Ki±SEM, 5HT2A. The procedure:
as §1, §2, §3, §4
Rat cerebral cortex was homogenized in 20 volumes of ice-cold Tris-HCl buffer (50 mM, pH 7.7) using an ULTRA TURAX homogeniser, and centrifuged at 32000 g for 20 min. The resulting pellet was resuspended in the same quantity of the buffer centrifuged for 20 min. The final pellet was resuspended in 50 volumes of the Tris-HCl buffer.
Total binding each assay tube was added 900 µL of the tissue suspension, 50 µL of 0.6 nM [^3H]ketanserin (60.0 Ci/mmol, Perkin Elmer Life Sciences, Boston, MA, USA), 50 µL Tris-HCl buffer.
Non-specific binding each assay tube was added 900 µL of the tissue suspension, 50 µL of 0.6 nM [^3H]ketanserin, 50 µL of 10 µM methisergide.
Specific binding each assay tube was added 900 µL of the tissue suspension, 50 µL of 0.6 nM [^3H]ketanserin, […] of new compounds or reference drug.
as §5

The target in data set [5] is T6, serotonin 5-HT2C receptor (Rattus norvegicus, UniProt P08909).
T6 construct: Rat cerebral cortex was homogenized in 20 volumes of ice-cold Tris-HCl buffer; from tissue; host or cells: rat brain (cerebral) cortex
T6 sequence (P08909 33-460): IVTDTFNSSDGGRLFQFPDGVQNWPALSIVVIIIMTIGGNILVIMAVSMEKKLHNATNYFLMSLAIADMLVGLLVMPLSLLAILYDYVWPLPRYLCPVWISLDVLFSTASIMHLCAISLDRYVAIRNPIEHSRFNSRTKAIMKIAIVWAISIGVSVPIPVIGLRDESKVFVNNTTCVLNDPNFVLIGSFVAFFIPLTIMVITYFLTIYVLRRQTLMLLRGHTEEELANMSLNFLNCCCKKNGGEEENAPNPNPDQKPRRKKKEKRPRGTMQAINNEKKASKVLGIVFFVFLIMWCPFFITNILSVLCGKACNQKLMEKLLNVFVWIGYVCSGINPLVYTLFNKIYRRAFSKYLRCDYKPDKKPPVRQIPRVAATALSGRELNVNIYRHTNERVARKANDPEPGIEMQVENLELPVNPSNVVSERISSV
Nature of the data set: 5-HT2C binding assay ([3H]mesulergine, rat brain cortex). The conditions noted are these: mean of three experiments, read-out: Ki±SEM, 5HT2C. The protocol: as §1
Total binding was determined in the absence of no-specific binding and compounds. Specific binding was determined in the presence of compounds. Non-specific binding was determined as the difference between total and specific binding. […]
Ki values were calculated based on the Cheng and Prussoff equation: Ki = IC50/(1+C/Kd) where C represents the concentration of the hot ligand used and Kd its receptor dissociation constant were calculated for each labeled ligand. […]
The resulting pellet was resuspended in the same quantity of the buffer centrifuged for 20 min. […]
as §5

Where [6] appears, read: mice, 95% confidence limits in parentheses.

T4 sequence (P61169 whole entry): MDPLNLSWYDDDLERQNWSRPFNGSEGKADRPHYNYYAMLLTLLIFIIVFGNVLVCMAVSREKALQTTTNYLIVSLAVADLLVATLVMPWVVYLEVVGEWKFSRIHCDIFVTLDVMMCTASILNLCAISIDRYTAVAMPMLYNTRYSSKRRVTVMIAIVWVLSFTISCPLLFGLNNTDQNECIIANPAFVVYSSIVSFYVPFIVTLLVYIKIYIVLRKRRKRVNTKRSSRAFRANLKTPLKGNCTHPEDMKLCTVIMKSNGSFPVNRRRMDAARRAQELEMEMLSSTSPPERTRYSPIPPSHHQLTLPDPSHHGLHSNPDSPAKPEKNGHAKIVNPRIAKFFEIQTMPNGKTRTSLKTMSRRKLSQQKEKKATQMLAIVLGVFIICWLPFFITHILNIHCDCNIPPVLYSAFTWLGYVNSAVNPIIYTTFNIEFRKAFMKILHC
T5 sequence (P14842 whole entry): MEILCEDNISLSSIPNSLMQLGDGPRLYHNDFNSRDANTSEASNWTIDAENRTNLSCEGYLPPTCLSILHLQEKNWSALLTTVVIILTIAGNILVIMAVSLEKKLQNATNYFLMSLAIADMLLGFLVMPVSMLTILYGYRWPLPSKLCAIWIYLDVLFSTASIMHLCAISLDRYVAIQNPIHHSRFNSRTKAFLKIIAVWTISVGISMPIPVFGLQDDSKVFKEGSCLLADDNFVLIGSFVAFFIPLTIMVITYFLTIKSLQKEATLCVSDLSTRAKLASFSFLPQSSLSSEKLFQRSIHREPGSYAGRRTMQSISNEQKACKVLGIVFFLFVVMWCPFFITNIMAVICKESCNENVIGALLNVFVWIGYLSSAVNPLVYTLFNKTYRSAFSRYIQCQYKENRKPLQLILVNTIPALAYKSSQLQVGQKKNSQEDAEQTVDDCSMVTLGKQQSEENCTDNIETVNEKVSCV
T1 sequence (P31389 whole entry): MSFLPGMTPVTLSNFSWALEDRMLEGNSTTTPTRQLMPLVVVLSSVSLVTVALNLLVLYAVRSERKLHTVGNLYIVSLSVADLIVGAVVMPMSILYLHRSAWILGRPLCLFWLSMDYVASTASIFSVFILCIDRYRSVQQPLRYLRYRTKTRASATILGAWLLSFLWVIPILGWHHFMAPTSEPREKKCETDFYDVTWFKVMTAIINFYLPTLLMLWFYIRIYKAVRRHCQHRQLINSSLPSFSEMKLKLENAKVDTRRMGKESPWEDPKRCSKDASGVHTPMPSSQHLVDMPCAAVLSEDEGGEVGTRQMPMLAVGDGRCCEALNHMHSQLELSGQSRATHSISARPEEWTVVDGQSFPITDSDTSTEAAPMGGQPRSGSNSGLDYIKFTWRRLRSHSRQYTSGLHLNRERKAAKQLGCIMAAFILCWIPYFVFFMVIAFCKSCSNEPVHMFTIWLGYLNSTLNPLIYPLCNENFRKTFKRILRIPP
T3 sequence (P19020 whole entry): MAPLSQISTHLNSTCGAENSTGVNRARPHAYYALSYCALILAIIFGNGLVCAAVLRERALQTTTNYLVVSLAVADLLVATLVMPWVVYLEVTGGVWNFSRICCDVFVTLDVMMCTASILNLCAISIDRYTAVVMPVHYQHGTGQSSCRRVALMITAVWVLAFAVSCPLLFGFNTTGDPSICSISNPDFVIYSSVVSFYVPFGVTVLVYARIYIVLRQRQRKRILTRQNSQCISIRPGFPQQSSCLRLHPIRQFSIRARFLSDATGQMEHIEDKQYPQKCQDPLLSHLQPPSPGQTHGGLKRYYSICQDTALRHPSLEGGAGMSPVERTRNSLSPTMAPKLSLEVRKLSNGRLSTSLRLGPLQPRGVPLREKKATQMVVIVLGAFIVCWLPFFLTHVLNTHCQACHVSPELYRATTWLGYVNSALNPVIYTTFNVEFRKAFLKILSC

Consider `CN1CCN(C2=Nc3cc(Cl)ccc3Nc3ccccc32)CC1` [clozapine], for which the ED50 came out at 5.06 mg/kg in [1], 7.99 mg/kg in data set [2] (setting [6]) and 92.7 mg/kg in “in vivo”.

Turning to `O=C(CCCN1CCC(O)(c2ccc(Cl)cc2)CC1)c1ccc(F)cc1` [haloperidol], the figures for the median effective dose (ED50) (in data set [1]; in [2] (setting [6]); in “in vivo”) were 0.19 mg/kg, 0.09 mg/kg and 0.22 mg/kg, respectively.

With `COc1ccc(-c2nnc(SCCCN3CCC(c4noc5cc(F)ccc45)CC3)o2)cc1` [Compound 14, 2-(3-(4-(6-fluorobenzo[d]isoxazol-3-yl)piperidin-1-yl)propylthio)-5-(4-methoxyphenyl)-1,3,4-oxadiazole], the inhibitory constant (Ki) at histamine H1 receptor turned out to be 13.2 ± 3.4 nM; in data set [3], 6.8 ± 0.7 nM; on dopamine D3 receptor it was 219 ± 35.2 nM; at dopamine D2 receptor it was 14.8 ± 1.8 nM; in [4], 0.22 ± 0.02 nM.

Consider `Fc1ccc2c(C3CCN(CCCSc4nnc(-c5ccc(Cl)cc5)o4)CC3)noc2c1` [Compound 16, 2-(3-(4-(6-fluorobenzo[d]isoxazol-3-yl)piperidin-1-yl)propylthio)-5-(4-chlorophenyl)-1,3,4-oxadiazole], for which the Ki in data set [5] was 502 ± 56.2 nM; on histamine H1 receptor ([3H]pyrilamine, guinea pig cerebellum, mean of three experiments, >10000 marked b: Ki not calculated, inhibition at 10 µM too low), 18.9 ± 2.1 nM; in [3] ([3H]8-OH-DPAT, rat brain cortex, mean of three experiments, >10000 marked b: Ki not calculated, inhibition at 10 µM too low), 10.5 ± 1.2 nM; at dopamine D3 receptor, 15.5 ± 1.9 nM; at dopamine D2 receptor ([3H]spiperone, rat striatum, mean of three experiments, >10000 marked b: Ki not calculated, inhibition at 10 µM too low) it was 18.3 ± 1.6 nM; in [4] ([3H]ketanserin, rat brain cortex, mean of three experiments, >10000 marked b: Ki not calculated, inhibition at 10 µM too low) it was 6.6 ± 0.8 nM.

`FC(F)(F)c1cccc(N2CCN(CCCSc3nnc(-c4ccccc4)o3)CC2)c1` [Compound 10, 2-((3-(4-(3-(trifluoromethyl)phenyl)piperazin-1-yl)propyl)thio)-5-phenyl-1,3,4-oxadiazole] displayed a melting point of 68 to 69 °C. In addition, in data set [3], the Ki was over 10000 nM. Moreover, the Ki on dopamine D2 receptor was over 10000 nM. Also, in data set [4], the inhibitory constant (Ki) was over 10000 nM.

In the case of `Cc1nc2n(c(=O)c1CCN1CCC(c3noc4cc(F)ccc34)CC1)CCCC2` [risperidone], the ED50 in data set [2] was 0.02 mg/kg.

In turn, `Cc1cccc(N2CCN(CCCSc3nnc(-c4ccccc4)o3)CC2)c1C` [Compound 7, 2-((3-(4-(2,3-dimethylphenyl)piperazin-1-yl)propyl)thio)-5-phenyl-1,3,4-oxadiazole] registered a melting point of 86 to 88 °C. In data set [3], the Ki is over 10000 nM. For the same compound, at dopamine D2 receptor, the Ki was over 10000 nM. The Ki in data set [4] amounted to 374 ± 33 nM.
